According to PubChem BioAssay AID1963853 (Molecular Pharmacology Branch, DTP, NCI, 2024):

Tested on: 266295-075-R-J1-PDC spheroid viability
Experiment: Anticancer human tumor 266295-075-R-J1-PDC patient-derived head and neck squamous carcinoma cell line growth inhibition [POLQ]
Settings: spheroids with HUVEC and MSC; for IC50: curve of first compound; for viability, T/C: stronger effect = lower value
Outline: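 Complex spheroid viability model combining PDC tumour cells with endothelial (HUVEC) and MSC stromal cells. Novobiocin, ART-558 or RP6685 were tested singly and in combination with standard and investigational anticancer drugs. Each was titrated in half-log steps from near clinical Cmax, or from 10 microM where Cmax was unknown.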

[1] = second compound 0.0316 µM, first compound 0.0316 µM
[2] = second compound 0.0316 µM, first compound 0.1 µM
[3] = second compound 0.0316 µM, first compound 0.316 µM
[4] = second compound 0.0316 µM, first compound 1 µM
[5] = second compound 0.0316 µM, first compound 3.16 µM
[6] = second compound 0.0316 µM, first compound 10 µM
[7] = second compound 0.1 µM, first compound 0.0316 µM
[8] = second compound 0.1 µM, first compound 0.1 µM
[9] = second compound 0.1 µM, first compound 0.316 µM
[10] = second compound 0.1 µM, first compound 1 µM
[11] = second compound 0.1 µM, first compound 3.16 µM
[12] = second compound 0.1 µM, first compound 10 µM
[13] = second compound 0.316 µM, first compound 0.0316 µM
[14] = second compound 0.316 µM, first compound 0.1 µM
[15] = second compound 0.316 µM, first compound 0.316 µM
[16] = second compound 0.316 µM, first compound 1 µM
[17] = second compound 0.316 µM, first compound 3.16 µM
[18] = second compound 0.316 µM, first compound 10 µM
[19] = second compound 1 µM, first compound 0.0316 µM
[20] = second compound 1 µM, first compound 0.1 µM
[21] = second compound 1 µM, first compound 0.316 µM
[22] = second compound 1 µM, first compound 1 µM
[23] = second compound 1 µM, first compound 3.16 µM
[24] = second compound 1 µM, first compound 10 µM
[25] = second compound 3.16 µM, first compound 0.0316 µM
[26] = second compound 3.16 µM, first compound 0.1 µM
[27] = second compound 3.16 µM, first compound 0.316 µM
[28] = second compound 3.16 µM, first compound 1 µM
[29] = second compound 3.16 µM, first compound 3.16 µM
[30] = second compound 3.16 µM, first compound 10 µM
[31] = second compound 10 µM, first compound 0.0316 µM
[32] = second compound 10 µM, first compound 0.1 µM
[33] = second compound 10 µM, first compound 0.316 µM
[34] = second compound 10 µM, first compound 1 µM
[35] = second compound 10 µM, first compound 3.16 µM
[36] = second compound 10 µM, first compound 10 µM
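Note: spheroids exposed to compounds for seven days before readout.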

CNCc1ccc(-c2[nH]c3cc(F)cc4c3c2CCNC4=O)cc1 + Cc1cccc(N(C)C(=O)C2C(O)CCN2c2nc(C)cc(C(F)(F)F)c2C#N)c1
IC50 (second compound 0.0316 µM): > 10 µM | IC50 (second compound 0.1 µM): > 10 µM | IC50 (second compound 0.316 µM): > 10 µM | IC50 (second compound 1 µM): > 10 µM | IC50 (second compound 3.16 µM): > 10 µM | IC50 (second compound 10 µM): > 10 µM | viability, T/C [1]: 87.1% | viability, T/C [2]: 117% | viability, T/C [3]: 87.5% | viability, T/C [4]: 105% | viability, T/C [5]: 107% | viability, T/C [6]: 102% | viability, T/C [7]: 95.4% | viability, T/C [8]: 99.8% | viability, T/C [9]: 88.2% | viability, T/C [10]: 84.2% | viability, T/C [11]: 126% | viability, T/C [12]: 128% | viability, T/C [13]: 104% | viability, T/C [14]: 111% | viability, T/C [15]: 104% | viability, T/C [16]: 99.1% | viability, T/C [17]: 98.3% | viability, T/C [18]: 112% | viability, T/C [19]: 102% | viability, T/C [20]: 102% | viability, T/C [21]: 99.9% | viability, T/C [22]: 93.6% | viability, T/C [23]: 110% | viability, T/C [24]: 123% | viability, T/C [25]: 105% | viability, T/C [26]: 88.7% | viability, T/C [27]: 101% | viability, T/C [28]: 102% | viability, T/C [29]: 112% | viability, T/C [30]: 115% | viability, T/C [31]: 90.1% | viability, T/C [32]: 115% | viability, T/C [33]: 113% | viability, T/C [34]: 126% | viability, T/C [35]: 107% | viability, T/C [36]: 106%

O=c1[nH]cc(F)c(=O)[nH]1 + Cc1cccc(N(C)C(=O)C2C(O)CCN2c2nc(C)cc(C(F)(F)F)c2C#N)c1
IC50 (second compound 0.0316 µM): > 10 µM | IC50 (second compound 0.1 µM): > 10 µM | IC50 (second compound 0.316 µM): > 10 µM | IC50 (second compound 1 µM): > 10 µM | IC50 (second compound 3.16 µM): > 10 µM | IC50 (second compound 10 µM): > 10 µM | viability, T/C [1]: 87.9% | viability, T/C [2]: 81% | viability, T/C [3]: 101% | viability, T/C [4]: 92.1% | viability, T/C [5]: 77.8% | viability, T/C [6]: 85.1% | viability, T/C [7]: 120% | viability, T/C [8]: 87.6% | viability, T/C [9]: 84.3% | viability, T/C [10]: 99.7% | viability, T/C [11]: 104% | viability, T/C [12]: 83.1% | viability, T/C [13]: 77.2% | viability, T/C [14]: 99.8% | viability, T/C [15]: 90.6% | viability, T/C [16]: 92.6% | viability, T/C [17]: 92.4% | viability, T/C [18]: 63.5% | viability, T/C [19]: 98.5% | viability, T/C [20]: 97.9% | viability, T/C [21]: 95.2% | viability, T/C [22]: 97.7% | viability, T/C [23]: 99.5% | viability, T/C [24]: 96.9% | viability, T/C [25]: 105% | viability, T/C [26]: 98.9% | viability, T/C [27]: 102% | viability, T/C [28]: 136% | viability, T/C [29]: 95.4% | viability, T/C [30]: 73.8% | viability, T/C [31]: 89.8% | viability, T/C [32]: 96.8% | viability, T/C [33]: 110% | viability, T/C [34]: 94.3% | viability, T/C [35]: 92.9% | viability, T/C [36]: 71.6%

COc1cc(C2c3cc4c(cc3C(OC3OC5COC(C)OC5C(O)C3O)C3COC(=O)C23)OCO4)cc(OC)c1O (stereo not drawn) + COC1C(OC(N)=O)C(O)C(Oc2ccc3c(O)c(NC(=O)c4ccc(O)c(CC=C(C)C)c4)c(=O)oc3c2C)OC1(C)C
IC50 (second compound 0.0316 µM): > 10 µM | IC50 (second compound 0.1 µM): > 10 µM | IC50 (second compound 0.316 µM): > 10 µM | IC50 (second compound 1 µM): > 10 µM | IC50 (second compound 3.16 µM): > 10 µM | IC50 (second compound 10 µM): > 10 µM | viability, T/C [1]: 81.4% | viability, T/C [2]: 118% | viability, T/C [3]: 93.5% | viability, T/C [4]: 89.6% | viability, T/C [5]: 89.1% | viability, T/C [6]: 76.9% | viability, T/C [7]: 88.7% | viability, T/C [8]: 105% | viability, T/C [9]: 110% | viability, T/C [10]: 83.2% | viability, T/C [11]: 85.1% | viability, T/C [12]: 77.4% | viability, T/C [13]: 90.1% | viability, T/C [14]: 98.5% | viability, T/C [15]: 89.8% | viability, T/C [16]: 87% | viability, T/C [17]: 83.3% | viability, T/C [18]: 82% | viability, T/C [19]: 101% | viability, T/C [20]: 92.1% | viability, T/C [21]: 86.3% | viability, T/C [22]: 96.9% | viability, T/C [23]: 91.1% | viability, T/C [24]: 72.2% | viability, T/C [25]: 102% | viability, T/C [26]: 91.2% | viability, T/C [27]: 114% | viability, T/C [28]: 94.7% | viability, T/C [29]: 99% | viability, T/C [30]: 83% | viability, T/C [31]: 116% | viability, T/C [32]: 116% | viability, T/C [33]: 120% | viability, T/C [34]: 92.4% | viability, T/C [35]: 110% | viability, T/C [36]: 80.5%

CC1COCCN1c1cc(C2(O)CC3CCC(C2)O3)c2cnn(-c3ccn[nH]3)c2n1 (stereo not drawn) + COC1C(OC(N)=O)C(O)C(Oc2ccc3c(O)c(NC(=O)c4ccc(O)c(CC=C(C)C)c4)c(=O)oc3c2C)OC1(C)C
IC50 (second compound 0.0316 µM): 1.13 µM | IC50 (second compound 0.1 µM): 1.29 µM | IC50 (second compound 0.316 µM): 1.05 µM | IC50 (second compound 1 µM): 0.921 µM | IC50 (second compound 3.16 µM): 0.898 µM | IC50 (second compound 10 µM): 0.903 µM | viability, T/C [1]: 84.7% | viability, T/C [2]: 79.8% | viability, T/C [3]: 65.6% | viability, T/C [4]: 52.8% | viability, T/C [5]: 36.9% | viability, T/C [6]: 29.8% | viability, T/C [7]: 92% | viability, T/C [8]: 80.8% | viability, T/C [9]: 62.7% | viability, T/C [10]: 51.5% | viability, T/C [11]: 44.6% | viability, T/C [12]: 26.8% | viability, T/C [13]: 103% | viability, T/C [14]: 69.5% | viability, T/C [15]: 64.8% | viability, T/C [16]: 56.1% | viability, T/C [17]: 43.2% | viability, T/C [18]: 30.4% | viability, T/C [19]: 87.2% | viability, T/C [20]: 73.3% | viability, T/C [21]: 75.3% | viability, T/C [22]: 46.8% | viability, T/C [23]: 41.7% | viability, T/C [24]: 34.4% | viability, T/C [25]: 84.2% | viability, T/C [26]: 74.7% | viability, T/C [27]: 57% | viability, T/C [28]: 48.2% | viability, T/C [29]: 42.9% | viability, T/C [30]: 31% | viability, T/C [31]: 81.2% | viability, T/C [32]: 81.9% | viability, T/C [33]: 63.2% | viability, T/C [34]: 49.4% | viability, T/C [35]: 39.3% | viability, T/C [36]: 34.2%
